{"source": "ChEMBL document CHEMBL1201861", "about": "“Genomics of Drug Sensitity in Cancer screening data, Wellcome Trust Sanger Institute”", "experiment_in_all_cases": "cells", "key": {"EW-3": {"test_system": "EW-3", "format": "functional, cell-based, Homo sapiens", "conditions": "Homo sapiens, EW-3", "description": "SANGER: Inhibition of human EW-3 cell growth in a cell viability assay."}, "GT3TKB": {"test_system": "GT3TKB", "format": "functional, cell-based, Homo sapiens", "conditions": "Homo sapiens, GT3TKB", "description": "SANGER: Inhibition of human GT3TKB cell growth in a cell viability assay."}, "RXF 393": {"test_system": "RXF 393", "format": "functional, cell-based, Homo sapiens", "conditions": "Homo sapiens, RXF 393", "description": "SANGER: Inhibition of human RXF393 cell growth in a cell viability assay."}, "SBC-1": {"test_system": "SBC-1", "format": "functional, cell-based, Homo sapiens", "conditions": "Homo sapiens, SBC-1", "description": "SANGER: Inhibition of human SBC-1 cell growth in a cell viability assay."}, "CTB-1": {"test_system": "CTB-1", "format": "functional, cell-based, Homo sapiens", "conditions": "Homo sapiens, CTB-1", "description": "SANGER: Inhibition of human CTB-1 cell growth in a cell viability assay."}, "P30-OHK": {"test_system": "P30-OHK", "format": "functional, cell-based, Homo sapiens", "conditions": "Homo sapiens, P30-OHK", "description": "SANGER: Inhibition of human P30-OHK cell growth in a cell viability assay."}, "EW-13": {"test_system": "EW-13", "format": "functional, cell-based, Homo sapiens", "conditions": "Homo sapiens, EW-13; read-out: IC50", "description": "SANGER: Inhibition of human EW-13 cell growth in a cell viability assay."}, "A3-KAW": {"test_system": "A3-KAW", "format": "functional, cell-based, Homo sapiens", "conditions": "Homo sapiens, A3-KAW", "description": "SANGER: Inhibition of human A3-KAW cell growth in a cell viability assay."}, "SK-NEP-1": {"test_system": "SK-NEP-1", "format": "functional, cell-based, Homo sapiens", "conditions": "Homo sapiens, SK-NEP-1", "description": "SANGER: Inhibition of human SK-NEP-1 cell growth in a cell viability assay."}, "OS-RC-2": {"test_system": "OS-RC-2", "format": "functional, cell-based, Homo sapiens", "conditions": "Homo sapiens, OS-RC-2", "description": "SANGER: Inhibition of human OS-RC-2 cell growth in a cell viability assay."}, "COLO-684": {"test_system": "COLO-684", "format": "functional, cell-based, Homo sapiens", "conditions": "Homo sapiens, COLO-684", "description": "SANGER: Inhibition of human COLO-684 cell growth in a cell viability assay."}, "ML-2": {"test_system": "ML-2", "format": "functional, cell-based, Homo sapiens", "conditions": "Homo sapiens, ML-2", "description": "SANGER: Inhibition of human ML-2 cell growth in a cell viability assay."}, "OVCAR-4": {"test_system": "OVCAR-4", "format": "functional, cell-based, Homo sapiens", "conditions": "Homo sapiens, OVCAR-4", "description": "SANGER: Inhibition of human OVCAR-4 cell growth in a cell viability assay."}, "NOS-1": {"test_system": "NOS-1", "format": "functional, cell-based, Homo sapiens", "conditions": "Homo sapiens, NOS-1", "description": "SANGER: Inhibition of human NOS-1 cell growth in a cell viability assay."}, "SHP77": {"test_system": "SHP77", "format": "functional, cell-based, Homo sapiens, SHP-77", "conditions": "Homo sapiens, SHP77", "description": "SANGER: Inhibition of human SHP-77 cell growth in a cell viability assay."}, "CAS-1": {"test_system": "CAS-1", "format": "functional, cell-based, Homo sapiens", "conditions": "Homo sapiens, CAS-1", "description": "SANGER: Inhibition of human CAS-1 cell growth in a cell viability assay."}, "DSH1": {"test_system": "DSH1", "format": "functional, cell-based", "conditions": "Homo sapiens", "description": "SANGER: Inhibition of human DSH1 cell growth in a cell viability assay."}, "JAR": {"test_system": "JAR", "format": "functional, cell-based, Homo sapiens", "conditions": "Homo sapiens, JAR", "description": "SANGER: Inhibition of human JAR cell growth in a cell viability assay."}, "U-266": {"test_system": "U-266", "format": "functional, cell-based, Homo sapiens", "conditions": "Homo sapiens, U-266", "description": "SANGER: Inhibition of human U-266 cell growth in a cell viability assay."}, "GCIY": {"test_system": "GCIY", "format": "functional, cell-based, Homo sapiens", "conditions": "Homo sapiens, GCIY", "description": "SANGER: Inhibition of human GCIY cell growth in a cell viability assay."}, "L-363": {"test_system": "L-363", "format": "functional, cell-based, Homo sapiens", "conditions": "Homo sapiens, L-363", "description": "SANGER: Inhibition of human L-363 cell growth in a cell viability assay."}, "NCI-H446": {"test_system": "NCI-H446", "format": "functional, cell-based, Homo sapiens", "conditions": "Homo sapiens, NCI-H446", "description": "SANGER: Inhibition of human NCI-H446 cell growth in a cell viability assay."}, "A4-Fuk": {"test_system": "A4-Fuk", "format": "functional, cell-based, Homo sapiens", "conditions": "Homo sapiens, A4-Fuk", "description": "SANGER: Inhibition of human A4-Fuk cell growth in a cell viability assay."}, "BE-13": {"test_system": "BE-13", "format": "functional, cell-based, Homo sapiens", "conditions": "Homo sapiens, BE-13", "description": "SANGER: Inhibition of human BE-13 cell growth in a cell viability assay."}, "NB10": {"test_system": "NB10", "format": "functional, cell-based, Homo sapiens", "conditions": "Homo sapiens, NB10", "description": "SANGER: Inhibition of human NB10 cell growth in a cell viability assay."}, "TGBC1TKB": {"test_system": "TGBC1TKB", "format": "functional, cell-based, Homo sapiens", "conditions": "Homo sapiens, TGBC1TKB", "description": "SANGER: Inhibition of human TGBC1TKB cell growth in a cell viability assay."}, "LU-139": {"test_system": "LU-139", "format": "functional, cell-based, Homo sapiens", "conditions": "Homo sapiens, LU-139", "description": "SANGER: Inhibition of human LU-139 cell growth in a cell viability assay."}, "JVM-2": {"test_system": "JVM-2", "format": "functional, cell-based, Homo sapiens", "conditions": "Homo sapiens, JVM-2", "description": "SANGER: Inhibition of human JVM-2 cell growth in a cell viability assay."}, "LB1047-RCC": {"test_system": "LB1047-RCC", "format": "functional, cell-based, Homo sapiens", "conditions": "Homo sapiens, LB1047-RCC", "description": "SANGER: Inhibition of human LB1047-RCC cell growth in a cell viability assay."}, "IST-MES1": {"test_system": "IST-MES1", "format": "functional, cell-based, Homo sapiens", "conditions": "Homo sapiens, IST-MES1", "description": "SANGER: Inhibition of human IST-MES1 cell growth in a cell viability assay."}, "HAL-01": {"test_system": "HAL-01", "format": "functional, cell-based, Homo sapiens", "conditions": "Homo sapiens, HAL-01", "description": "SANGER: Inhibition of human HAL-01 cell growth in a cell viability assay."}, "NMC-G1": {"test_system": "NMC-G1", "format": "functional, cell-based, Homo sapiens", "conditions": "Homo sapiens, NMC-G1", "description": "SANGER: Inhibition of human NMC-G1 cell growth in a cell viability assay."}, "MC116": {"test_system": "MC116", "format": "functional, cell-based, Homo sapiens", "conditions": "Homo sapiens, MC116", "description": "SANGER: Inhibition of human MC116 cell growth in a cell viability assay."}, "SK-N-FI": {"test_system": "SK-N-FI", "format": "functional, cell-based, Homo sapiens", "conditions": "Homo sapiens, SK-N-FI", "description": "SANGER: Inhibition of human SK-N-FI cell growth in a cell viability assay."}, "SNU1": {"test_system": "SNU1", "format": "functional, cell-based, Homo sapiens", "conditions": "Homo sapiens, SNU1", "description": "SANGER: Inhibition of human NCI-SNU-1 cell growth in a cell viability assay."}, "LAMA-84": {"test_system": "LAMA-84", "format": "functional, cell-based, Homo sapiens", "conditions": "Homo sapiens, LAMA-84", "description": "SANGER: Inhibition of human LAMA-84 cell growth in a cell viability assay."}, "SW 962": {"test_system": "SW 962", "format": "functional, cell-based, Homo sapiens", "conditions": "Homo sapiens, SW 962", "description": "SANGER: Inhibition of human SW962 cell growth in a cell viability assay."}, "NCI-H82": {"test_system": "NCI-H82", "format": "functional, cell-based, Homo sapiens", "conditions": "Homo sapiens, NCI-H82", "description": "SANGER: Inhibition of human NCI-H82 cell growth in a cell viability assay."}, "ES4": {"test_system": "ES4", "format": "functional, cell-based, Homo sapiens", "conditions": "Homo sapiens, ES4", "description": "SANGER: Inhibition of human ES4 cell growth in a cell viability assay."}, "HCE-T": {"test_system": "HCE-T", "format": "functional, cell-based, Homo sapiens", "conditions": "Homo sapiens, HCE-T", "description": "SANGER: Inhibition of human HCE-T cell growth in a cell viability assay."}, "697": {"test_system": "697", "format": "functional, cell-based, Homo sapiens", "conditions": "Homo sapiens", "description": "SANGER: Inhibition of human 697 cell growth in a cell viability assay."}, "KE-37": {"test_system": "KE-37", "format": "functional, cell-based, Homo sapiens", "conditions": "Homo sapiens, KE-37", "description": "SANGER: Inhibition of human KE-37 cell growth in a cell viability assay."}, "RKO": {"test_system": "RKO", "format": "functional, cell-based, Homo sapiens", "conditions": "Homo sapiens, RKO", "description": "SANGER: Inhibition of human RKO cell growth in a cell viability assay."}, "NCI-H526": {"test_system": "NCI-H526", "format": "functional, cell-based, Homo sapiens", "conditions": "Homo sapiens, NCI-H526", "description": "SANGER: Inhibition of human NCI-H526 cell growth in a cell viability assay."}, "ATN-1": {"test_system": "ATN-1", "format": "functional, cell-based, Homo sapiens", "conditions": "Homo sapiens, ATN-1", "description": "SANGER: Inhibition of human ATN-1 cell growth in a cell viability assay."}, "DJM-1": {"test_system": "DJM-1", "format": "functional, cell-based, Homo sapiens", "conditions": "Homo sapiens, DJM-1", "description": "SANGER: Inhibition of human DJM-1 cell growth in a cell viability assay."}, "TK-10": {"test_system": "TK-10", "format": "functional, cell-based, Homo sapiens", "conditions": "Homo sapiens, TK-10", "description": "SANGER: Inhibition of human TK10 cell growth in a cell viability assay."}, "KURAMOCHI": {"test_system": "KURAMOCHI", "format": "functional, cell-based, Homo sapiens", "conditions": "Homo sapiens, KURAMOCHI", "description": "SANGER: Inhibition of human KURAMOCHI cell growth in a cell viability assay."}, "NCI-H747": {"test_system": "NCI-H747", "format": "functional, cell-based, Homo sapiens", "conditions": "Homo sapiens, NCI-H747", "description": "SANGER: Inhibition of human NCI-H747 cell growth in a cell viability assay."}, "EW-1": {"test_system": "EW-1", "format": "functional, cell-based, Homo sapiens", "conditions": "Homo sapiens, EW-1", "description": "SANGER: Inhibition of human EW-1 cell growth in a cell viability assay."}}}
{"compound": "O=S(=O)(O)c1ccc2cc(/N=N/c3cc(S(=O)(=O)O)c4cccnc4c3O)ccc2c1", "values": [{"measurement": "IC50", "setting": "EW-3", "value": "> 16", "unit": "µM"}, {"measurement": "IC50", "setting": "GT3TKB", "value": "> 16", "unit": "µM"}, {"measurement": "IC50", "setting": "RXF 393", "value": "> 16", "unit": "µM"}, {"measurement": "IC50", "setting": "SBC-1", "value": "> 16", "unit": "µM"}, {"measurement": "IC50", "setting": "CTB-1", "value": "> 16", "unit": "µM"}, {"measurement": "IC50", "setting": "P30-OHK", "value": "> 16", "unit": "µM"}, {"measurement": "IC50", "setting": "EW-13", "value": 5.17, "unit": "µM"}, {"measurement": "IC50", "setting": "A3-KAW", "value": "> 16", "unit": "µM"}, {"measurement": "IC50", "setting": "SK-NEP-1", "value": "> 16", "unit": "µM"}, {"measurement": "IC50", "setting": "OS-RC-2", "value": "> 16", "unit": "µM"}, {"measurement": "IC50", "setting": "COLO-684", "value": "> 16", "unit": "µM"}, {"measurement": "IC50", "setting": "ML-2", "value": "> 16", "unit": "µM"}, {"measurement": "IC50", "setting": "OVCAR-4", "value": "> 16", "unit": "µM"}, {"measurement": "IC50", "setting": "NOS-1", "value": "> 16", "unit": "µM"}, {"measurement": "IC50", "setting": "SHP77", "value": "> 16", "unit": "µM"}, {"measurement": "IC50", "setting": "CAS-1", "value": "> 16", "unit": "µM"}, {"measurement": "IC50", "setting": "DSH1", "value": "> 16", "unit": "µM"}, {"measurement": "IC50", "setting": "JAR", "value": "> 16", "unit": "µM"}, {"measurement": "IC50", "setting": "U-266", "value": "> 16", "unit": "µM"}, {"measurement": "IC50", "setting": "GCIY", "value": "> 16", "unit": "µM"}, {"measurement": "IC50", "setting": "L-363", "value": "> 16", "unit": "µM"}, {"measurement": "IC50", "setting": "NCI-H446", "value": "> 16", "unit": "µM"}, {"measurement": "IC50", "setting": "A4-Fuk", "value": "> 16", "unit": "µM"}, {"measurement": "IC50", "setting": "BE-13", "value": "> 16", "unit": "µM"}, {"measurement": "IC50", "setting": "NB10", "value": "> 16", "unit": "µM"}, {"measurement": "IC50", "setting": "TGBC1TKB", "value": "> 16", "unit": "µM"}, {"measurement": "IC50", "setting": "LU-139", "value": "> 16", "unit": "µM"}, {"measurement": "IC50", "setting": "JVM-2", "value": "> 16", "unit": "µM"}, {"measurement": "IC50", "setting": "LB1047-RCC", "value": "> 16", "unit": "µM"}, {"measurement": "IC50", "setting": "IST-MES1", "value": "> 16", "unit": "µM"}, {"measurement": "IC50", "setting": "HAL-01", "value": "> 16", "unit": "µM"}, {"measurement": "IC50", "setting": "NMC-G1", "value": "> 16", "unit": "µM"}, {"measurement": "IC50", "setting": "MC116", "value": "> 16", "unit": "µM"}, {"measurement": "IC50", "setting": "SK-N-FI", "value": "> 16", "unit": "µM"}, {"measurement": "IC50", "setting": "SNU1", "value": "> 16", "unit": "µM"}, {"measurement": "IC50", "setting": "LAMA-84", "value": "> 16", "unit": "µM"}, {"measurement": "IC50", "setting": "SW 962", "value": "> 16", "unit": "µM"}, {"measurement": "IC50", "setting": "NCI-H82", "value": "> 16", "unit": "µM"}, {"measurement": "IC50", "setting": "ES4", "value": "> 16", "unit": "µM"}, {"measurement": "IC50", "setting": "HCE-T", "value": "> 16", "unit": "µM"}, {"measurement": "IC50", "setting": "697", "value": "> 16", "unit": "µM"}, {"measurement": "IC50", "setting": "KE-37", "value": "> 16", "unit": "µM"}, {"measurement": "IC50", "setting": "RKO", "value": "> 16", "unit": "µM"}, {"measurement": "IC50", "setting": "NCI-H526", "value": "> 16", "unit": "µM"}, {"measurement": "IC50", "setting": "ATN-1", "value": "> 16", "unit": "µM"}, {"measurement": "IC50", "setting": "DJM-1", "value": "> 16", "unit": "µM"}, {"measurement": "IC50", "setting": "TK-10", "value": "> 16", "unit": "µM"}, {"measurement": "IC50", "setting": "KURAMOCHI", "value": "> 16", "unit": "µM"}, {"measurement": "IC50", "setting": "NCI-H747", "value": "> 16", "unit": "µM"}, {"measurement": "IC50", "setting": "EW-1", "value": "> 16", "unit": "µM"}]}
